Read-outs that look alike come from different tables or passages of the source.
Experiments:
KRAS-G13D = KRAS-G13D (Homo sapiens, UniProt P01116, G13D); experiment: SOS-catalyzed nucleotide exchange assay (Procedure A, TR-FRET), KRAS-G13D; type: biochemical; settings: nucleotide exchange, Procedure A; read-out: KRAS G13D GNE IC50
KRAS-G12D = KRAS-G12D (Homo sapiens, UniProt P01116, G12D); experiment: SOS-catalyzed nucleotide exchange assay (Procedure A, TR-FRET), KRAS-G12D; type: biochemical; settings: nucleotide exchange, read-out: KRAS G12D GNE IC50
Outline: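 Signal ratio (520/495 nm, excitation 340 nm) reports Bodipy-GDP retention on biotinylated RAS after SOS-catalyzed exchange with 3 mM GTP. SOS was 40 nM, except 160 nM for G12V. Room-temperature exchange lasted 60 min (90 min for G12V), following a 60 min compound preincubation.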

KRAS-G12V = KRAS-G12V (Homo sapiens, UniProt P01116, G12V); experiment: SOS-catalyzed nucleotide exchange assay (Procedure A, TR-FRET), KRAS-G12V; type: biochemical; settings: nucleotide exchange, read-out: KRAS G12V GNE IC50
Outline: (§1)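 Compounds (10-point, 3-fold) were preincubated 60 min at room temperature with a biotinylated RAS/Bodipy-GDP/Tb-streptavidin TR-FRET complex. Exchange was started with human SOS plus 3 mM GTP. RAS/SOS: G12C 3/40 nM, WT 1/40 nM, NRAS 1.25/40 nM (60 min); G12V 1.25/160 nM (90 min). The 520/495 ratio was fit four-parameter.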

PANC08.13 cells = experiment: Cellular phospho-ERK assay, PANC08.13 cells (homozygous KRAS-G12D); type: cell-based; settings: Homo sapiens, read-out: PANC-08.13 pERK IC50
Experimental: Procedure for Cellular Phospho-ERK Assay in KRAS Wild Type and Mutant (G12D, G12V) Cell Lines
MKN-1 cells (JCRB JCRB0252) containing amplified wild-type KRAS, were cultured in growth medium that contains RPMI 1640-GlutaMAX™-I (ThermoFisher Scientific 61870) containing 10% heat inactivated fetal bovine serum (ThermoFisher Scientific 10091148), 1 mM sodium pyruvate and 10 mM HEPES. PANC08.13 cells (ATCC® CRL-2551™), containing homozygous KRAS-G12D activating mutation, were cultured in growth medium made of RPMI1640-GlutaMAX™-I (ThermoFisher Scientific 61870) containing 15% heat inactivated fetal bovine serum (ThermoFisher Scientific 10091148)). AsPC-1 cells (ATCC® CRL-1682™), containing homozygous KRAS-G12D activating mutation, were cultured in T150 flask in growth medium (RPMI medium 1640-GlutaMAX™-I (ThermoFisher Scientific 61870) containing 10% fetal bovine serum (ThermoFisher Scientific 10091148)). SW620 cells (ATCC® […]), containing homozygous KRAS-G12V activating mutation, were cultured in growth medium that contains RPMI 1640-GlutaMAX™-I (ThermoFisher Scientific 61870) containing 10% heat inactivated fetal bovine serum (ThermoFisher Scientific 10091148).
Cells for the assay were harvested in growth medium after TrypLE (ThermoFisher scientific 12604021) digestion and were seeded in a 384-well collagen coated cell culture plate (Corning 356702) at a density of 10,000-15,000 cells/20 μL/well, and incubated at 37° C., 5% CO2 overnight. The compound (with 10 mM stock concentration) dose-response titrations were prepared [30 μM final ERK detection assay concentration and 1:3 dilutions, 10-point dose response] and appropriate amounts (270 nL) of test compounds were dispensed in a 384-well intermediate plate using an Echo 550 liquid handler. 30 μL/well of RPMI medium 1640-GlutaMAX™—I was added to the intermediate plate and the contents of the intermediate plate (10 μL/well) were then transferred to the 384-well collagen coated cell culture plate, which was incubated at 37° C., 5% CO2 for 2 hours. After removal of medium from the collagen coated cell culture plate, cells were lysed in lysis buffer from Alpha SureFire® Ultra™ Multiplex p-ERK and total ERK assay kit (PerkinElmer MPSU-PTERK) containing Halt™ Protease and Phosphatase inhibitor cocktail (ThermoFisher Scientific 78446) at room temperature with constant shaking at 300 rpm for 30 minutes. The cell lysates were then transferred to an OptiPlate-384 plate (PerkinElmer 6005620), and the phosphorylation of ERK (p-ERK) and total ERK levels were detected by Alpha SureFire® Ultra™ Multiplex p-EEK kit and total ERK assay kit (PerkinElmer MPSU-PTERK) following the manufacturer's protocol. Assay plates were read on a En Vision Multimode Plate Reader (PerkinElmer), and the ratio of p-ERK vs. total ERK in each well was used as the final readout. Dose response curves were analyzed using a 4-parameter logistic model to calculate IC50 values using Spotfire software.

[1] = molecular target: KRAS-G12C (C51S/C80L/C118S) (Homo sapiens, UniProt P01116, C118S/C51S/C80L/G12C); experiment: SOS-catalyzed nucleotide exchange assay (Procedure A, TR-FRET), KRAS-G12C; type: biochemical; settings: nucleotide exchange, Procedure A; read-out: KRAS G12C GNE IC50
Outline: as §1

KRAS-WT = KRAS-WT (Homo sapiens, UniProt P01116); experiment: SOS-catalyzed nucleotide exchange assay (Procedure A, TR-FRET), KRAS-WT; type: biochemical; settings: nucleotide exchange, read-out: KRAS WT GNE IC50
Outline: as §1

Chain of KRAS-G13D (P01116 with tags, fused parts or gaps isoform P01116-2 G13D): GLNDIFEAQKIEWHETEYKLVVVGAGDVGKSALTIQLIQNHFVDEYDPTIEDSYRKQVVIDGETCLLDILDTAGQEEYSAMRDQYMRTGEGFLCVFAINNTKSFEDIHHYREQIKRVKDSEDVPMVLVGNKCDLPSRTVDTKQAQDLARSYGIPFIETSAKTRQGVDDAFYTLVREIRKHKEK
Chain of KRAS-G12C (C51S/C80L/C118S) (P01116 with tags, fused parts or gaps isoform P01116-2 G12C/C51S/C80L/C118S): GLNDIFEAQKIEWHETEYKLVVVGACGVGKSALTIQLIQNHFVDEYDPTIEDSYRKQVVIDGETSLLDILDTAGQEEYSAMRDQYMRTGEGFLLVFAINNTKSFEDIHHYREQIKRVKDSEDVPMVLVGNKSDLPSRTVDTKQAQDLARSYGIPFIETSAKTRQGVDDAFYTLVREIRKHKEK
Chain of KRAS-G12V (P01116 with tags, fused parts or gaps isoform P01116-2 G12V): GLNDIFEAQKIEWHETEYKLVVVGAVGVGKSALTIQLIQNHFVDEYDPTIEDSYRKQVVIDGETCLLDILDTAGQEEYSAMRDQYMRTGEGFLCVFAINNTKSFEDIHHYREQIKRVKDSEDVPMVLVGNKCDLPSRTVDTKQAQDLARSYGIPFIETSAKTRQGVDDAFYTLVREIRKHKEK
Chain of KRAS-WT (P01116 with tags, fused parts or gaps isoform P01116-2): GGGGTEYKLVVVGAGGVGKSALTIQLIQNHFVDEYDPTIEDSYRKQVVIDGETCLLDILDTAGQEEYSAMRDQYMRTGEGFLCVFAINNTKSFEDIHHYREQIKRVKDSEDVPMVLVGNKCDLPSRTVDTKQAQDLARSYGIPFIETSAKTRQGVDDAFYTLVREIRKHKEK
Chain of KRAS-G12D (P01116 with tags, fused parts or gaps isoform P01116-2 G12D): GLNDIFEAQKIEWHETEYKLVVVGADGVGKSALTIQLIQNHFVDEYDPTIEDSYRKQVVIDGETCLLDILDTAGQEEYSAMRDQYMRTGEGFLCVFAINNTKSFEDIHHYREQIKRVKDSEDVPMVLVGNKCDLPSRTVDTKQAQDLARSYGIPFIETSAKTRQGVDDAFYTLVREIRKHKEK

SMILES	IC50 (KRAS-G13D) [µM]	IC50 (KRAS-G12D) [µM]	IC50 (KRAS-G12V) [µM]	IC50 (PANC08.13 cells; PANC-08-13, KRAS-G12D, 2 hours) [µM]	IC50 [1] [µM]	IC50 (KRAS-WT) [µM]	IC50 (PANC08.13 cells; PANC-08-13, 2 hours compound incubation) [µM]
Cc1cc2[nH]ncc2c(-c2nccc3c2sc2nc(OC[C@@]45CCCN4C[C@H](F)C5)nc(N4CCOC[C@@](C)(O)C4)c23)c1C#N [Ex-34, 4-(2-(((2R,7aS)-2-fluorotetrahydro-1H-pyrrolizin-7a(5H)-yl)methoxy)-4-((S)-6-hydroxy-6-methyl-1,4-oxazepan-4-yl)pyrido[4′,3′:4,5]thieno[2,3-d]pyrimidin-8-yl)-6-methyl-1H-indazole-5-carbonitrile]	1.09	0.261	0.44	0.9	0.175	0.494	–
Cc1cc2[nH]ncc2c(-c2nccc3c2sc2nc(OC[C@@]45CCCN4C[C@H](F)C5)nc(NC4COC4)c23)c1C(F)(F)F [Ex-184, 2-(((2R,7aS)-2-fluoro-tetrahydro-1H-pyrrolizin-7a(5H)-yl)methoxy)-8-(6-methyl-5-(trifluorometh-yl)-1H-indazol-4-yl)-N-(oxetan-3-yl)pyrido [4′,3′:4,5]thieno[2,3-d] pyrimidin-4-amine]	0.668	0.591	0.194	–	0.0967	0.822	0.812
Cc1nc2[nH]ncc2c(-c2nccc3c4c(N5CCOC[C@@](C)(O)C5)nc(OC[C@@]56CCCN5C[C@H](F)C6)nc4n(C)c23)c1C(F)(F)F [Ex-14, (6S)-4-(2-(((2R,7aS)-2-fluorotetrahydro-1H-pyrrolizin-7a(5H)-yl)methoxy)-9-methyl-8-(6-methyl-5-(trifluoromethyl)-1H-pyrazolo[3,4-b]pyridin-4-yl)-9H-pyrido[4′,3′:4,5]pyrrolo[2,3-d]pyrimidin-4-yl)-6-methyl-1,4-oxazepan-6-ol]	0.543	0.276	0.404	0.561	0.233	0.681	–
Cc1cc2[nH]ncc2c(-c2nccc3c4c(N5CCOCC(O)C5)nc(OC[C@@]56CCCN5C[C@H](F)C6)nc4n(C)c23)c1C(F)(F)F (single isomer, unassigned) [Ex-23]	0.789	1.43	0.657	3.06	0.19	1.2	–
Cc1cc2[nH]ncc2c(-c2nccc3c2oc2nc(OC[C@@]45CCCN4C[C@H](F)C5)nc(N4CCOC[C@@](C)(O)C4)c23)c1C(F)(F)F [Ex-290, (6S)-4-(2-(((2R,7aS)-2-fluorotetrahydro-1H-pyrrolizin-7a(5H)-yl)methoxy)-8-(6-methyl-5-(trifluoromethyl)-1H-indazol-4-yl)pyrido[4′,3′:4,5]furo[2,3-d]pyrimidin-4-yl)-6-methyl-1,4-oxazepan-6-ol]	1.03	0.611	0.365	2.33	0.175	1.4	–
C[C@@]1(O)COCCN(c2nc(OC[C@@]34CCCN3C[C@H](F)C4)nc3sc4c(-c5ccc(F)c6sc(N)c(C#N)c56)cncc4c23)C1 [Ex-274, 2-amino-7-fluoro-4-(2-(((2R,7aS)-2-fluorotetrahydro-1H-pyrrolizin-7a(5H)-yl)methoxy)-4-((S)-6-hydroxy-6-methyl-1,4-oxazepan-4-yl)pyrido[3′,4′:4,5]thieno[2,3-d]pyrimidin-8-yl)benzo[b]thiophene-3-carbonitrile]	0.0876	0.671	0.401	1.01	0.121	0.33	–
CCn1c2nc(OC[C@@]34CCCN3C[C@H](F)C4)nc(N3CCOC[C@@](C)(O)C3)c2c2ccnc(-c3c(C(F)(F)F)c(C)cc4[nH]ncc34)c21 [Ex-24, (6S)-4-(9-ethyl-2-(((2R,7aS)-2-fluorotetrahydro-1H-pyrrolizin-7a(5H)-yl)methoxy)-8-(6-methyl-5-(trifluoromethyl)-1H-indazol-4-yl)-9H-pyrido[4′,3′:4,5]pyrrolo[2,3-d]pyrimidin-4-yl)-6-methyl-1,4-oxazepan-6-ol]	1.02	0.705	0.492	0.749	0.224	0.929	–

From patent US20260176289A1, “SMALL MOLECULE INHIBITORS OF KRAS PROTEINS” (Merck Sharp & Dohme LLC, priority 2022, published 2026)
